This note sets out measurements from US12089595B2, “Pseudomonas strains and their metabolites to control plant diseases” (T3 Bioscience, Inc., priority 2020, dated 2024).

Structures are written as SMILES. In brackets after ≈: the same amount, converted by molar mass.

The test concerns Septoria tritici. Briefly: microbe, parasite or virus in culture. Format: cell-based. The settings on record: Zymoseptoria tritici, 144 h.

`CSC1=C(C)C(=O)C(=O)NC1=O` [RejuAgro A] returned an MIC of 100 µg/mL (≈ 540 µM).
